One compound from patent US20220380383A1, “NEUROPROTECTIVE PDI MODULATING SMALL MOLECULES AND METHODS OF USE THEREOF” (THE TRUSTEES OF COLUMBIA UNIVERSITY IN THE CITY OF NEW YORK, priority 2018, published 2022) can be followed below.

For one data set, the target named is Opiate (OP3, MOP) (Homo sapiens, UniProt P35372). As to the kind of experiment: Off-target panel, Opiate. The format is binding. The note with it: Conc. 3 μM.
The next data set concerns the target Potassium Channel hERG (Homo sapiens, UniProt Q12809). Put plainly: in vitro.
Another data set concerns the target T1, NMDAR (1A/2B) (Homo sapiens, UniProt Q05586+Q13224).
T1 construct: CEREP (CRO panel)
Put plainly: Safety47 panel ion channel NMDAR (1A/2B). The note with it: 3 μM. The format is cell-based. The text has this:
(§1) LOC14 was also submitted for testing in CEREP's Safety47 panel. CEREP is a CRO specializing in preclinical research, discovery and development of new pharmaceutical drugs.

A further data set concerns the target T2, NET (Homo sapiens, UniProt P23975).
T2 construct: CEREP (CRO panel)
Put plainly: Safety47 panel transporter NET. The format is cell-based. The note with it: Blocker mode; 3 μM.
Excerpt: as §1

Data set [1] has as its target T3, CHRM2 (muscarinic acetylcholine receptor M2) (Homo sapiens, UniProt P08172).
T3 construct: CEREP (CRO that ran the panel)
Put plainly: Safety47 panel GPCR CHRM2. The format is cell-based.
Excerpt: as §1

Structures are written as SMILES. Values joined by “and” are separate entries in the source; they are usually repeats but may differ in a detail not shown here. Identical values can stand only once.

T1 sequence (Q13224 27-1484, other chains not shown): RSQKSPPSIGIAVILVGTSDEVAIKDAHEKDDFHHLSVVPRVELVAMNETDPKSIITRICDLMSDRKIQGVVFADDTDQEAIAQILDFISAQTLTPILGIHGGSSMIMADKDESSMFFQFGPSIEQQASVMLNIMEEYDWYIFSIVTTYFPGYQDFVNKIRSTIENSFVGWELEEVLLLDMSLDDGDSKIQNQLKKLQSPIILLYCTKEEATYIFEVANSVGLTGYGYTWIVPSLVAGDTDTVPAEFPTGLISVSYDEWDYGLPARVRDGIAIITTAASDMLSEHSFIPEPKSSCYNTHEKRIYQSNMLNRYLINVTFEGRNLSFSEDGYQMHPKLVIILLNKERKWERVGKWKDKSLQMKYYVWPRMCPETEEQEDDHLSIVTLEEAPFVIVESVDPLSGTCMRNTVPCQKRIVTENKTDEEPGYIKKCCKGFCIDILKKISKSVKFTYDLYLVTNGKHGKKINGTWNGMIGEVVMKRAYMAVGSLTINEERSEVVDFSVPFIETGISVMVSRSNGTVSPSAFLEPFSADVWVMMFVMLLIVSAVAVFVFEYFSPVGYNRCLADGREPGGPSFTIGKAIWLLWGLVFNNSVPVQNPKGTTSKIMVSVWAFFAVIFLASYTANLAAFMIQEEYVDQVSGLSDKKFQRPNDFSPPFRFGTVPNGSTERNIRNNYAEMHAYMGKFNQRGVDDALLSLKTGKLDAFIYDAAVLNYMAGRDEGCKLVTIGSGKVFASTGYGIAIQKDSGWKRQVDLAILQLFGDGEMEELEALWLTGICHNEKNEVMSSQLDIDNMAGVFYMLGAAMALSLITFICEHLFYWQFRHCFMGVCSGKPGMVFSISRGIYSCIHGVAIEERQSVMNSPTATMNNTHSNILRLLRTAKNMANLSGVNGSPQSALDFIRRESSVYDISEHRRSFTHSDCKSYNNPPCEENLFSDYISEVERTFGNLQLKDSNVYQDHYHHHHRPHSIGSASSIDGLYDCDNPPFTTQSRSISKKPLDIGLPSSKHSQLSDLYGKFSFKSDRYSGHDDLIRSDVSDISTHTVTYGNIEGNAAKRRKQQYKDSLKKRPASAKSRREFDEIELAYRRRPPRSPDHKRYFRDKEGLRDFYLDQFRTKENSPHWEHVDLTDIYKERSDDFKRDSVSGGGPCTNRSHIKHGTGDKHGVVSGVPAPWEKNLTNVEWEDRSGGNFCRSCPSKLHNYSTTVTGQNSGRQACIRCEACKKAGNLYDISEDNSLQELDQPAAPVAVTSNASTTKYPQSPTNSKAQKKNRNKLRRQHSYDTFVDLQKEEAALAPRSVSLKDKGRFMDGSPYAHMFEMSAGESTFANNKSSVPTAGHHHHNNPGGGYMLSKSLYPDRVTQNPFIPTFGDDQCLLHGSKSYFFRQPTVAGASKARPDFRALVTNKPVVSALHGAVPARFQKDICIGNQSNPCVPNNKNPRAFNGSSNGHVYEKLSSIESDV
T3 sequence (P08172 whole entry): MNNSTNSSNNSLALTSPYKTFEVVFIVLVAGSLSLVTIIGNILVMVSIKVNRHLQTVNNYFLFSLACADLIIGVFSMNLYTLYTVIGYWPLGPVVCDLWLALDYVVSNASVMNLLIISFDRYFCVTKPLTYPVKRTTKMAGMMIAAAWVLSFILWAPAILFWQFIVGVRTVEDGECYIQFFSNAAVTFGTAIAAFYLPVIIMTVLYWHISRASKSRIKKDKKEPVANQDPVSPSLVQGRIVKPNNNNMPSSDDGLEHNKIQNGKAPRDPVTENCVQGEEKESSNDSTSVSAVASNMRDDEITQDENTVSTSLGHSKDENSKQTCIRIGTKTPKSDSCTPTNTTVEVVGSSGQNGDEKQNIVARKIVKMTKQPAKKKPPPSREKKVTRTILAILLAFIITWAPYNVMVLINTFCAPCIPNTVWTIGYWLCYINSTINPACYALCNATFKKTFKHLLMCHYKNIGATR
Sequence of Potassium Channel hERG (Q12809 whole entry): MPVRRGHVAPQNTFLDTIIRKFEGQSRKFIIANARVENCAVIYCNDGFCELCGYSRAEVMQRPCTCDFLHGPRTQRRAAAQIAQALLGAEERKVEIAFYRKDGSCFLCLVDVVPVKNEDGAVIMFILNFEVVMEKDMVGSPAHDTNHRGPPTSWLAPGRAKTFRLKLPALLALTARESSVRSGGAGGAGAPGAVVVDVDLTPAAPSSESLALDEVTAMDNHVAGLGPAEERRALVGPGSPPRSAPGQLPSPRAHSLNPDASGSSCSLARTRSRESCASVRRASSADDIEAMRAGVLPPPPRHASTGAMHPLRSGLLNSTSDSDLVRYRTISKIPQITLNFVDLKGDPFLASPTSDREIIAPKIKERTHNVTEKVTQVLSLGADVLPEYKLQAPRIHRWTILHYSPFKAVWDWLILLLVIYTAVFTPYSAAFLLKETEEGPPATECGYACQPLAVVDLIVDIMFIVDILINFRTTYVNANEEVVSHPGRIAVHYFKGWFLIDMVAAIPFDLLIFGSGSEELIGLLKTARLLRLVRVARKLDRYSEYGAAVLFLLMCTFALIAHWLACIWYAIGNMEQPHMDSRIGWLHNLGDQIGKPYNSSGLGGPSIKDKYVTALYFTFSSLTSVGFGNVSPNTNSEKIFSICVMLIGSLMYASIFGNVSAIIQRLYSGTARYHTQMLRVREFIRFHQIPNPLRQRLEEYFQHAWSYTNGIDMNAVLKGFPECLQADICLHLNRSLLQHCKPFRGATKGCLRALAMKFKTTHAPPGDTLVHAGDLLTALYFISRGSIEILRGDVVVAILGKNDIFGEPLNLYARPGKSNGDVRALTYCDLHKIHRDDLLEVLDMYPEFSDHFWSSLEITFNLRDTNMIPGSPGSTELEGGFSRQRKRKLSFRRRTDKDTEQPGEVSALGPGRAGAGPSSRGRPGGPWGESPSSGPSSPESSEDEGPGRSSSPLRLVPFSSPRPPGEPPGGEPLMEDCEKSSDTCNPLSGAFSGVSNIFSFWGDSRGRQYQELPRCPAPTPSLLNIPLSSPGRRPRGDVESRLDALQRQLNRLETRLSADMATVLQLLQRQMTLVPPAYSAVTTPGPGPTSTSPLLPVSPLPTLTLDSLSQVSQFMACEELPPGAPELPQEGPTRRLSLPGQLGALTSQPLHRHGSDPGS
T2 sequence (P23975 whole entry): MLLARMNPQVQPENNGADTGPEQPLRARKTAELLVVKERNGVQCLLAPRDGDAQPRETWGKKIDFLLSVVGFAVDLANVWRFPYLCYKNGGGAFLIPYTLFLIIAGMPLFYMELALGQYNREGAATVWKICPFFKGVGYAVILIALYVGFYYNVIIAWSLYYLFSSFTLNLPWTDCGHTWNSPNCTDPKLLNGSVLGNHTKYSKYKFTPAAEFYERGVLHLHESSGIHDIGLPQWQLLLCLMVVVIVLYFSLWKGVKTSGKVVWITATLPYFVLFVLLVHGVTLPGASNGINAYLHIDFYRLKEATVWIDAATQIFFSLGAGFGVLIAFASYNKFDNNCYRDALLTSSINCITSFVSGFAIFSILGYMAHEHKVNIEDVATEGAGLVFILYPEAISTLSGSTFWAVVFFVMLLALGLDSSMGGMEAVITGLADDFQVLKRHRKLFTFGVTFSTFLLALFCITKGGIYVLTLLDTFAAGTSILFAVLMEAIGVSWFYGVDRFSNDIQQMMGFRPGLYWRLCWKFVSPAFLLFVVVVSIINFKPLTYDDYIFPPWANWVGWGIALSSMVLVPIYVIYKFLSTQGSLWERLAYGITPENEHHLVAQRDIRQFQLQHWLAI
Sequence of Opiate (OP3, MOP) (P35372 whole entry): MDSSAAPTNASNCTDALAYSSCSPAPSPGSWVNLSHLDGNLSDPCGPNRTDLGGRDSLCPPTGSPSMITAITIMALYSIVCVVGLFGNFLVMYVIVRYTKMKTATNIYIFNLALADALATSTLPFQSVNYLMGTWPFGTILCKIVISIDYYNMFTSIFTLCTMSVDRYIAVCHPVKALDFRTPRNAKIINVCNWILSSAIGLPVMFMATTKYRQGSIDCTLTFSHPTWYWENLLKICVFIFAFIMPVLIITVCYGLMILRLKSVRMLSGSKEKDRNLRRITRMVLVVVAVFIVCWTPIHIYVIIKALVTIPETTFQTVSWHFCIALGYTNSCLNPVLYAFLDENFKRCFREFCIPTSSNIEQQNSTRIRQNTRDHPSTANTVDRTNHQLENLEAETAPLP
Excerpt for Potassium Channel hERG: Additionally, we tested LOC14 in CEREP's Safety47 panel, an in vitro pharmacological profiling to determine off-target liabilities that might exist against 47 human targets associated with safety issues (Table 3 and Table 4).

Regarding `O=C(C1CC1)N1CCN(Cn2sc3ccccc3c2=O)CC1` [LOC14], the inhibition at 3 µM on Opiate (OP3, MOP) is -1%; against Potassium Channel hERG, 10%. The Average on NMDAR (1A/2B) (Blocker mode) is 0.0; at NMDAR (1A/2B) (Opener mode) it was 1.7; at NET, 0.0. Besides, the “activity (response) against muscarinic acetylcholine receptor M2” value in data set [1] is < 95% and 70%.

The inhibition is the change of the read-out against control, counted positive when it falls.
